Results on 12 compounds are retold here after patent US11447496B2, “Nitrogen-containing fused heterocyclic ring compound and application thereof” (GUANGZHOU CHINARAY OPTOELECTRONIC MATERIALS LTD., priority 2016, dated 2022).

The data set can be described thus: Solubility in toluene, xylene and chloroform at 25° C. Format: physicochemical. Particulars: organic solvent or mixture. As for the experimental part:
1. A solubility (mg/mL) of compounds of Examples 1 to 11 and CBP, i.e., 4,4′-bis(9H-carbazol-9-yl)biphenyl, in toluene, xylene and chloroform was measured. The test temperature was 25° C.

[1] abbreviates: chloroform, in chloroform, read-out: Solubility Chloroform.
Where [2] appears, read: toluene, in toluene, read-out: Solubility Toluene.
Where [3] appears, read: xylene, in xylene, read-out: Solubility Xylene.
Setting [4] is: chloroform, in chloroform, read-out: solubility in chloroform (text summary of Table 1).
Where [5] appears, read: toluene, in toluene, read-out: solubility in toluene (text summary of Table 1).
Where [6] appears, read: xylene, in xylene, read-out: solubility in xylene (text summary of Table 1).

Converted amounts (≈) assume the structure as drawn. Read-outs that look alike come from different tables or passages of the source. Bounds are passed on as bounds.

`c1ccc2c(c1)c1ccccc1n2-c1ccc(-c2ccc(-n3c4ccccc4c4ccccc43)cc2)cc1` [CBP, 4,4′-bis(9H-carbazol-9-yl)biphenyl, reference compound]: the solubility (as a rule, how much of the substance goes into solution per volume) came out at 185 mg/mL (≈ 382 mM) under setting [1], 130 mg/mL (≈ 268 mM) under setting [2] and 153 mg/mL (≈ 316 mM) under setting [3].

For the compound `c1ccc(-c2nc(-c3cccc4c3-c3ccccc3C43c4ccccc4-c4ccccc43)nc(-n3c4ccccc4c4ccc5c6ccccc6n(-c6ccccc6)c5c43)n2)cc1` [Example 1], the solubility by setting is: under setting [1], 410 mg/mL (≈ 511 mM); under setting [4], above 300 mg/mL; under setting [2], 250 mg/mL (≈ 312 mM); under setting [5], above 200 mg/mL; under setting [3], 320 mg/mL (≈ 399 mM); under setting [6], above 240 mg/mL.

As to `c1ccc(-c2nc(-c3cccc4c3-c3ccccc3C43c4ccccc4-c4ccccc43)nc(-n3c4ccccc4c4cc5c6ccccc6n(-c6ccccc6)c5cc43)n2)cc1` [Example 2], the solubility under setting [1] was 294 mg/mL (≈ 367 mM); the solubility under setting [4] was above 300 mg/mL; the solubility under setting [2] is 205 mg/mL (≈ 256 mM); the solubility under setting [5] is above 200 mg/mL; the solubility under setting [3] was determined as 256 mg/mL (≈ 319 mM); the solubility under setting [6] is above 240 mg/mL.

As to `c1ccc(-c2nc(-c3cccc4c3-c3ccccc3C43c4ccccc4-c4ccccc43)nc(-n3c4ccccc4c4c5c6ccccc6n(-c6ccccc6)c5ccc43)n2)cc1` [Example 3], the solubility under setting [1] was found to be 285 mg/mL (≈ 355 mM); the solubility under setting [4] was above 300 mg/mL; the solubility under setting [2] was 200 mg/mL (≈ 249 mM); the solubility under setting [5] was above 200 mg/mL; the solubility under setting [3] was 243 mg/mL (≈ 303 mM); the solubility under setting [6] is above 240 mg/mL.

Take `c1ccc(-c2cc(-c3ccc4c(c3)-c3ccccc3C43c4ccccc4-c4ccccc43)nc(N3c4ccccc4Oc4ccc5c(c43)c3ccccc3n5-c3ccccc3)n2)cc1` [Example 4]: the solubility is 430 mg/mL (≈ 526 mM) under setting [1]; above 300 mg/mL under setting [4]; 305 mg/mL (≈ 373 mM) under setting [2]; above 200 mg/mL under setting [5]; 362 mg/mL (≈ 443 mM) under setting [3]; above 240 mg/mL under setting [6].

In the case of `CC1(C)c2ccccc2N(c2nc(-c3ccccc3)nc(-c3ccc4c(c3)-c3ccccc3C43c4ccccc4-c4ccccc43)n2)c2cc3c(cc21)c1ccccc1n3-c1ccccc1` [Example 5], the solubility is 445 mg/mL (≈ 527 mM) under setting [1]; above 300 mg/mL under setting [4]; 330 mg/mL (≈ 391 mM) under setting [2]; above 200 mg/mL under setting [5]; 376 mg/mL (≈ 445 mM) under setting [3]; above 240 mg/mL under setting [6].

Turning to `CC1(C)c2ccccc2N(c2nc(-c3ccccc3)nc(-c3cccc4c3-c3ccccc3C43c4ccccc4-c4ccccc43)n2)c2ccc3c4ccccc4n(-c4ccccc4)c3c21` [Example 6], the solubility was 460 mg/mL (≈ 545 mM) under setting [1]; above 300 mg/mL under setting [4]; 350 mg/mL (≈ 415 mM) under setting [2]; above 200 mg/mL under setting [5]; 392 mg/mL (≈ 464 mM) under setting [3]; above 240 mg/mL under setting [6].

`CC1(C)c2ccccc2N(c2ccccc2)c2cc3c(cc21)N(c1nc(-c2ccccc2)cc(-c2cccc4c2-c2ccccc2C42c4ccccc4-c4ccccc42)n1)c1ccccc1C3(C)C` [Example 7]: the solubility was 473 mg/mL (≈ 534 mM) under setting [1]; above 300 mg/mL under setting [4]; 362 mg/mL (≈ 409 mM) under setting [2]; above 200 mg/mL under setting [5]; 405 mg/mL (≈ 458 mM) under setting [3]; above 240 mg/mL under setting [6].

For `CC1(C)c2ccccc2-c2ccc3c4ccccc4n(-c4nc(-c5ccccc5)nc(-c5cccc6c5-c5ccccc5C65c6ccccc6-c6ccccc65)n4)c3c21` [Example 8], the solubility under setting [1] was found to be 510 mg/mL (≈ 677 mM); the solubility under setting [4] is above 300 mg/mL; the solubility under setting [2] was 400 mg/mL (≈ 531 mM); the solubility under setting [5] is above 200 mg/mL; the solubility under setting [3] came to 452 mg/mL (≈ 600 mM); the solubility under setting [6] is above 240 mg/mL.

`c1ccc(-c2nc(-c3ccc4c(c3)C3(c5ccccc5Sc5ccccc53)c3ccccc3-4)nc(-n3c4ccccc4c4ccc5c6ccccc6n(-c6ccccc6)c5c43)n2)cc1` [Example 9]: the solubility runs as follows: under setting [1], 434 mg/mL (≈ 520 mM); under setting [4], above 300 mg/mL; under setting [2], 285 mg/mL (≈ 342 mM); under setting [5], above 200 mg/mL; under setting [3], 354 mg/mL (≈ 424 mM); under setting [6], above 240 mg/mL.

Turning to `c1ccc(-c2nc(-c3ccc4c(c3)C3(c5ccccc5-4)c4ccccc4N(c4ccccc4)c4ccccc43)nc(-n3c4ccccc4c4cc5c6ccccc6n(-c6ccccc6)c5cc43)n2)cc1` [Example 10], the solubility by setting is: under setting [1], 344 mg/mL (≈ 385 mM); under setting [4], above 300 mg/mL; under setting [2], 220 mg/mL (≈ 246 mM); under setting [5], above 200 mg/mL; under setting [3], 284 mg/mL (≈ 318 mM); under setting [6], above 240 mg/mL.

As for `[2H]c1cc2c3ccccc3n(-c3nc(-c4ccccc4)cc(-c4ccc5c(c4)-c4ccccc4C54c5ccccc5-c5ccccc54)n3)c2c2c3ccccc3n(-c3ccccc3)c12` [Example 11], the solubility under setting [1] was 374 mg/mL (≈ 466 mM); the solubility under setting [4] is above 300 mg/mL; the solubility under setting [2] is 268 mg/mL (≈ 334 mM); the solubility under setting [5] is above 200 mg/mL; the solubility under setting [3] was determined as 313 mg/mL (≈ 390 mM); the solubility under setting [6] is above 240 mg/mL.
